Assay results as given in patent publication US20260048045A1, “PI3K-ALPHA INHIBITORS FOR THE TREATMENT OF CANCER” (Scorpion Therapeutics, Inc., priority 2022, published 2026).

Columns and labels:
[1] = biological target: T1, PI3Kα H1047R (full-length p110-α H1047R complexed with truncated p85-α, residues 322-694) + wortmannin (Homo sapiens, UniProt P42336, H1047R); experiment: Surface Plasmon Resonance (SPR) binding, Biacore 8K, ATP site blocked with wortmannin; conditions: multi-cycle kinetics, 25° C., protein pre-incubated with 1 μM wortmannin
T1 construct: The protein contained a full-length p110-α subunit harboring the H1047R mutation with an N-terminal AviTag
Protocol: SPR experiments were performed on a Biacore 8K instrument. A biotinylated recombinant PI3Kα H1047R protein was used in this study. The protein contained a full-length p110-α subunit harboring the H1047R mutation with an N-terminal AviTag, complexed with a truncated p85-α subunit (amino acid residues 322-694). The protein was first incubated with 1 μM wortmannin for 30 min at RT to covalently block the ATP binding site, then immobilized onto a streptavidin sensor chip by flowing the protein through the sensor chip at typically 20 μg/mL concentration and 2 μL/min flow rate for 1200 seconds. Compound binding affinities were measured in the multi-cycle kinetics mode, at 90 μL/min flow rate with 90 seconds association time and 240 seconds dissociation time. The running buffer contained 50 mM Tris, pH 7.5, 150 mMNaCl, 0.01% Brij35, 1 mM DTT, 1 mM MgCl2, 0.05% Tween-20 and 2% DMSO. Temperature was maintained at 25° C. during experiments. SPR can also be utilized to study competition between Compounds A and B, i.e., by measuring the binding of Compound A in the presence and absence of Compound B, and by measuring the binding of Compound B in the presence and absence of Compound A.

[2] = system: pAKT (S473) in T47D.1 cells, PI3Kα H1047R mutation present; experiment: HTRF pAKT-T47D cell assay; type: cell-based; conditions: RPMI+10% FBS+0.2 units/mL bovine insulin
Protocol: Compounds A and B were assayed using homogeneous time-resolved fluorescence (HTRF).
Gibco RPMI 1640 Medium, no phenol red; Gibco RPMI 1640 Medium; Gibco Trypsin-EDTA (0.5%), no phenol red; Gibco DPBS; Trypan blue solution 0.4% (Corning); Avantor Seradigm Premium Grade Fetal Bovine Serum (FBS); Greiner 784080-384 well TC treated white plates; pAKT (Ser473) HTRF; Gibco Insulin, human recombinant, zinc solution; Gibco Recovery Cell Culture Freezing Medium; Countess II FL Automated Cell Counter (ThermoFisher); Countess II Slides (ThermoFisher); Microscope; and PHERAstar FSX Microplate Reader (BMG LABTECH, Inc.).
The cell line ID was T47D.1, the HTRF detection was pAKT (S473), a PI3Kα H1047R mutation was present, the seeding density was 5000, the timepoint was 1 hour, and the medium used was RPMI+10% FBS (no phenol red)+0.2 units/mL bovine insulin.
• The cell density was not permitted to reach 100% confluence. The cells were split 1.5 when they reached ˜80% confluence. • Cells were split twice a week (Mon and Fri). • Cells over passage 18 were not used (˜2 months of maintenance). • Antibiotics were not used for tissue culture maintenance or assays.
The procedure was as follows: • 1. Prepared ARP: • a. Stamped 12.5 nL from 10 mM source plate to destination plate using Echo. Sealed plate immediately and froze at −20° C. if it was not used on the same day. • b. If a frozen ARP was used, the plate was thawed and spun at 1000 rpm×1 min. • 2. Preparation of cells (adherent): • a. Aspirated media from cells. Washed cells with sterile 1×PBS. Aspirated PBS and added appropriate amount of Trypsin. • b. Once cells were fully trypsinized, added appropriate media to resuspend cells. Transferred cells to a 15 mL or 50 mL conical tube. • c. Counted cells on the Countess II Cell Counter. • 3. Plating of cells: • a. […] Calculated the amount of HTRF antibody master mix needed to perform the desired experiments plus any extra dead volume required for dispensing (4 mL required per well). […]
• 6. Measured on the PHERAstar/Envision using the HTRF protocol. When plates were read, all wells were read.

T1 sequence (P42336 whole entry H1047R, the tested form may be a part): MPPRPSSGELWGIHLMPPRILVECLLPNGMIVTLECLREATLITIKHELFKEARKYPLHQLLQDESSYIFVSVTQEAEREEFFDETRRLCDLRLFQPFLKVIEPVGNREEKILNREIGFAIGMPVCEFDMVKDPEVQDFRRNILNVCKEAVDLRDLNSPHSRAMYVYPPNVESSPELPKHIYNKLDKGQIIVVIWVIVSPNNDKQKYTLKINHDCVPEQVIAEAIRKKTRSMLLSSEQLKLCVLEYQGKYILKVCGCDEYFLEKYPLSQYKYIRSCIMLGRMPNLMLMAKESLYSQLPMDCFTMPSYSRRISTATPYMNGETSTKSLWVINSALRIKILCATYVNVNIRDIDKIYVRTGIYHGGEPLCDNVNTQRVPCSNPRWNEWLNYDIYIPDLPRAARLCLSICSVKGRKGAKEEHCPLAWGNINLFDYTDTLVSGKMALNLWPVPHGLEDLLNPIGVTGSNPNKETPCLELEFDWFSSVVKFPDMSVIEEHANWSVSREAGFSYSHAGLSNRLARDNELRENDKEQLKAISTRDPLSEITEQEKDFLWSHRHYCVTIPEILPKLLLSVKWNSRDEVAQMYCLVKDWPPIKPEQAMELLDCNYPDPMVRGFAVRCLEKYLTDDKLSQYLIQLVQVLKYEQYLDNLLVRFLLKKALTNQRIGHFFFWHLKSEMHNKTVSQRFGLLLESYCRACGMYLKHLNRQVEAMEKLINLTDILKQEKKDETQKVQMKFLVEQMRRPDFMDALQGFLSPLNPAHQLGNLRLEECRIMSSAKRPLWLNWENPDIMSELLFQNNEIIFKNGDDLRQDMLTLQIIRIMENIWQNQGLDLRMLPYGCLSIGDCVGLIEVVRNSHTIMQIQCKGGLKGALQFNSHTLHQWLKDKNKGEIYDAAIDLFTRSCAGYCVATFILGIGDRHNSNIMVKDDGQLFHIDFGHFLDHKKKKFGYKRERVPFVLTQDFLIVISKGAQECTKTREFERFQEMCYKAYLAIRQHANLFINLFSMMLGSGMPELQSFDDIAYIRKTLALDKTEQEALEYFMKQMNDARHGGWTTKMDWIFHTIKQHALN
T1 sequence (P27986 322-694 partner limits assumed): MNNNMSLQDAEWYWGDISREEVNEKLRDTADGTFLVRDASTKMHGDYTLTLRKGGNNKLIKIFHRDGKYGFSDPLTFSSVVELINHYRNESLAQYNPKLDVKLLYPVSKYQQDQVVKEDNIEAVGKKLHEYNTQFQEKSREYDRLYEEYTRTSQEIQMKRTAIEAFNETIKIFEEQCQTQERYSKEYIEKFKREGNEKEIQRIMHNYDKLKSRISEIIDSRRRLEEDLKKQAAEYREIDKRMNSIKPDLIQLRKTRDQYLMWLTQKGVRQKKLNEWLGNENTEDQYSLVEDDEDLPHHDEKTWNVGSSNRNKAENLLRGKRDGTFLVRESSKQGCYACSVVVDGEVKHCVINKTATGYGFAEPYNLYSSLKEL

Kd [1]	IC50 ([2]; 1 hour)	IC50 ([2]; Homo sapiens, T47D, 1 h)	SMILES
38.4 nM	598 nM	455 nM	Cc1c([C@@H](NC(=O)Nc2cncc(C(=O)N(C)C)c2)C(C)C)oc2ccc(F)cc12 [Compound A, (S)-5-(3-(1-(5-fluoro-3-methylbenzofuran-2-yl)-2-methylpropyl)ureido)-N,N-dimethylnicotinamide]
8.6 nM		213 nM	Cc1c([C@@H](Nc2nc3ccc(C(N)=O)cc3[nH]2)C(C)C)oc2ccc(F)cc12 [Compound B, (S)-2-((1-(5-fluoro-3-methylbenzofuran-2-yl)-2-methylpropyl)amino)-1H-benzo[d]imidazole-6-carboxamide]
